Experiments:
[1] = molecular target: T1, AKign (adenylate kinase from Methanotorrus igneus) (Methanotorris igneus, UniProt P43408); experiment: X-ray crystallography, […] A; format: binding; details: 4 mM AMP, 8% PEG 8000, 100 mM magnesium acetate, sodium acetate pH 4.5, 20 °C; two per protomer, in AMP and ATP sites
T1 construct: gene adkA; full length, residues 1-192; synthetic gene in pET21a, C-terminal His6 tag kept (disordered, unbuilt); E. coli BL21(DE3); homotrimer

[2] = molecular target: T1, AKign (adenylate kinase from Methanotorrus igneus); experiment: X-ray crystallography, […] A; format: binding; details: 4 mM Ap5A, 17% PEG 3350, 250 mM sodium malonate, 20 °C; one per protomer, spans AMP and ATP sites

T1 sequence (P43408 whole entry, the tested form may be a part): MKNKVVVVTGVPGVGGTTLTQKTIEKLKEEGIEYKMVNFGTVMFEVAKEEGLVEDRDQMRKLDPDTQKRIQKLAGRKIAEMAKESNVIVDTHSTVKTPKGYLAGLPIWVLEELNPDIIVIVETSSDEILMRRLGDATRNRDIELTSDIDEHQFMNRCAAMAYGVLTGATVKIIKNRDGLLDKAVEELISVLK

| SMILES | X-ray crystallography, 2.40 A [1] | X-ray crystallography, 2.25 A [2] |
| --- | --- | --- |
| Nc1ncnc2c1ncn2[C@@H]1O[C@H](COP(=O)(O)O)[C@@H](O)[C@H]1O [AMP] | AMP-bound AKign structure, which comprises two bound AMP molecules per AKign protomer |  |
| Nc1ncnc2c1ncn2[C@@H]1O[C@H](COP(=O)(O)OP(=O)(O)OP(=O)(O)OP(=O)(O)OP(=O)(O)OC[C@H]2O[C@@H](n3cnc4c(N)ncnc43)[C@H](O)[C@@H]2O)[C@@H](O)[C@H]1O [Ap5A, P^1,P^5-di(adenosine 5′)-pentaphosphate] |  | We also solved the AKign structure with the bound inhibitor, Ap5A. |
